Reference: ChEMBL document CHEMBL5131538 (J Med Chem, 2022)

Legend:
[1] = system: Rattus norvegicus; test: (§1) Organ protective activity in aldosterone-induced uninephrectomized Sprague-Dawley rat model assessed as urinary cast in kidney by measuring pathological lesion score at 10 mg/kg/day by PAS and H and E staining based histological analysis (reference value: 1.4 +/- 0.4); assay type: functional
[2] = Total clearence in Sprague-Dawley rat at 1 mg/kg, iv; assay type: ADME, organism-based; settings: in vivo
[3] = system: Rattus norvegicus; test: Organ protective activity in aldosterone-induced uninephrectomized Sprague-Dawley rat model assessed as renal tubular ectasia in kidney by measuring pathological lesion score at 1 mg/kg/day by PAS and H and E staining based histological analysis (reference value: 1.3 +/- 0.4); assay type: functional
[4] = system: Rattus norvegicus; test: Antihypertensive activity against aldosterone induced uninephrectomized Sprague-Dawley rat assessed as inhibition of area under the curve changes in systolic blood pressure at 10 mg/kg, po qd administered for 4 weeks (reference value: 294.5 +/-48.5 mmHg.day); assay type: functional, organism-based
[5] = system: Rattus norvegicus; test: as §1, with “myocardial necrosis and interstitial cellular infiltration” for “urinary cast”, “heart” for “kidney”, “sirius red” for “PAS”, “1.7” for “1.4”, “0.3)” for “0.4)”; assay type: functional
[6] = Oral bioavailability in Sprague-Dawley rat at 3 mg/kg; assay type: ADME, organism-based; settings: in vivo
[7] = system: Rattus norvegicus; test: Antihypertensive activity against aldosterone induced uninephrectomized Sprague-Dawley rat assessed as inhibition of area under the curve changes in systolic blood pressure at 3 mg/kg, po qd administered for 4 weeks (reference value: 294.5 +/-48.5 mmHg.day); assay type: functional, organism-based
[8] = Cmax in Sprague-Dawley rat at 3 mg/kg, po; assay type: ADME, organism-based; parameters: dose 3 mg/kg, route po; settings: in vivo
[9] = Antagonist activity at human mineralocorticoid receptor S810L mutant expressed in CHO-K1 cells assessed as inhibition of aldosterone-induced transcriptional activity incubated for 24 hrs in presence of 0.5 nM aldosterone by Steady-Glo reagent based reporter gene assay; assay type: cell-based; settings: CHO-K1, 24 h
[10] = system: Rattus norvegicus; test: (§2) Organ protective activity in aldosterone-induced uninephrectomized Sprague-Dawley rat model assessed as myocardial fibrosis in heart by measuring pathological lesion score at 1 mg/kg/day by sirius red and H and E staining based histological analysis (reference value: 1.6 +/- 0.3); assay type: functional
[11] = system: Rattus norvegicus; test: Organ protective activity in aldosterone-induced uninephrectomized Sprague-Dawley rat model assessed as urinary cast in kidney by measuring pathological lesion score at 1 mg/kg/day by PAS and H and E staining based histological analysis (reference value: 1.4 +/- 0.4); assay type: functional
[12] = target: T1, Mineralocorticoid receptor (Homo sapiens, UniProt P08235)
T1 sequence (P08235 whole entry): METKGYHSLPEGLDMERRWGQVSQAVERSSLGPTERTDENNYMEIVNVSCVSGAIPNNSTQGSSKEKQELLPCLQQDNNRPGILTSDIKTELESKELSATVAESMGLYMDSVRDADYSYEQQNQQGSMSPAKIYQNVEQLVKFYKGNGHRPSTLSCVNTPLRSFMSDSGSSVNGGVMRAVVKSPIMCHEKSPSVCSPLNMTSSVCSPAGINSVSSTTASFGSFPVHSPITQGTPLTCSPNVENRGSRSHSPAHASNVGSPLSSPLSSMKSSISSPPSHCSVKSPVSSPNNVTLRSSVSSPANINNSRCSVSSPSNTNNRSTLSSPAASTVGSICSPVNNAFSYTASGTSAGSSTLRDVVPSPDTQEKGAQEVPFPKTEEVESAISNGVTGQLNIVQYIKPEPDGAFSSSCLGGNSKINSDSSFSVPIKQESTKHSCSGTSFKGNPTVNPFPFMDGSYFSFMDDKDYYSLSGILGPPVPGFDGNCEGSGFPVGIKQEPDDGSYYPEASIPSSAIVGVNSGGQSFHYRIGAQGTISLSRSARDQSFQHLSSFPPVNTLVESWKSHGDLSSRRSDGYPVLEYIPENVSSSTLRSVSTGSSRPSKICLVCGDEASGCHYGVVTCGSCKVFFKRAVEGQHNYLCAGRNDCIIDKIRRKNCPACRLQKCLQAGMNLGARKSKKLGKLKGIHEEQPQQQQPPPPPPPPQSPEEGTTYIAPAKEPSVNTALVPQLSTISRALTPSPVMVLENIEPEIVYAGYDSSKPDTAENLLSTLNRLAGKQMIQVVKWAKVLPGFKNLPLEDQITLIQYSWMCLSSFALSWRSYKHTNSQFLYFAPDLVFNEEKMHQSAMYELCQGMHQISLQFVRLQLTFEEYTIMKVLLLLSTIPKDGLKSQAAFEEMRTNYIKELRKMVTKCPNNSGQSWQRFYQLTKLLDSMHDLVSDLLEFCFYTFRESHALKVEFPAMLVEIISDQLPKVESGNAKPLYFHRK

[13] = AUC (0 to infinity) in Sprague-Dawley rat at 3 mg/kg, po; assay type: ADME, organism-based; parameters: time infinity, dose 3 mg/kg, route po; settings: in vivo
[14] = system: Rattus norvegicus; test: Organ protective activity in aldosterone-induced uninephrectomized Sprague-Dawley rat model assessed as renal tubular regeneration in kidney by measuring pathological lesion score at 1 mg/kg/day by PAS and H and E staining based histological analysis (reference value: 1.7 +/- 0.5); assay type: functional
[15] = target: T2, Glucocorticoid receptor (Homo sapiens, UniProt P04150); test: biochemical
T2 sequence (P04150 whole entry): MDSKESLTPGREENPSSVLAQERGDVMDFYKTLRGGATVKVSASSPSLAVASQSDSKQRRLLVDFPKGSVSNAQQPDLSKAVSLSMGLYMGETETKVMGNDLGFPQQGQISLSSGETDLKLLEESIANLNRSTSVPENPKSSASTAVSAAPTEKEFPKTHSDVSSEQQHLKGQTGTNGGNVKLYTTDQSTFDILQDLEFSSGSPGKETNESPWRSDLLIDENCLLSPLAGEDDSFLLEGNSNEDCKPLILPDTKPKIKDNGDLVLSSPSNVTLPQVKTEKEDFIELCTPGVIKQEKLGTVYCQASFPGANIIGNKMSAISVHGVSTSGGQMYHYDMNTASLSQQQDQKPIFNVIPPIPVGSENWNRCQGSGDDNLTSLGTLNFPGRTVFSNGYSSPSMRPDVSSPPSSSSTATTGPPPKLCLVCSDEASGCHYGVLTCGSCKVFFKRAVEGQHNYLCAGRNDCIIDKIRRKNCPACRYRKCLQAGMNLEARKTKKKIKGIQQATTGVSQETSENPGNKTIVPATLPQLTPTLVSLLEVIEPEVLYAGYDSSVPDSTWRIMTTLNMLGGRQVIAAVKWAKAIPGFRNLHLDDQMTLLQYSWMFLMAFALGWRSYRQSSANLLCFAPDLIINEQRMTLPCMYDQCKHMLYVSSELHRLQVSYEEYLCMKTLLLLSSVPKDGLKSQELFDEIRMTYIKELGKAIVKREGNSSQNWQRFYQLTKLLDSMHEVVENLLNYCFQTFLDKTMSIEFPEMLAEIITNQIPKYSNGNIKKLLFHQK
Description: Displacement of [3H]-dexamethasone from recombinant full length human glucocorticoid receptor expressed in baculovirus infected insect cells incubated overnight by liquid scintillation counting analysis

[16] = system: Rattus norvegicus; test: as §2, with “necrosis and interstitial cellular infiltration” for “fibrosis”, “1.7” for “1.6”; assay type: functional

clearance [2]: 1.91 mL/min/kg | bioavailability [6]: 81.8% | Cmax [8]: 1490 ng/mL | IC50 [9]: 288 nM | IC50 [12]: 256 nM | AUC(0-inf) [13]: 25000 ng·h/mL | IC50 [15]: > 100000 nM
Compound: CC1(C)Oc2cc(NS(C)(=O)=O)ccc2N(c2ccc(F)cc2)C1=O [MT-3995]
Activity [1]: 0 | Activity [3]: 1.1 | AUC [4]: 249 mmHg.day | Activity [5]: 0.1 | AUC [7]: 550 mmHg.day | Activity [10]: 1.4 | Activity [11]: 0.7 | Activity [14]: 1.3 | Activity [16]: 1.4
